Among the test systems are NCI-H522 lung; T-47D breast; MOLT-4 leukemia; SW-620 colon; SK-MEL-2 melanoma; A549 NSCLC; HOP-62 NSCLC; SF-295 CNS.
Experiment in all cases: DTP human tumour cell line panel, 48 h

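Test compounds were applied to cells in 96-well plates for 48 hours at 5 doses. GI50 = concentration required for 50% inhibition of growth. TGI denotes the concentration required for complete inhibition of growth.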 Bounds are passed on as bounds.

Data on ten molecules can be found in PubChem BioAssay (NCI).

As to `O=C(Nc1ccc(-c2nc(-c3cccc(OCCN4CCOCC4)c3)c(-c3ccnc(Br)c3)[nH]2)cc1)c1ccccc1`, the GI50 was 3.69 µM with NCI-H522 lung; 2.22 µM in the assay with T-47D breast; 0.784 µM in the assay with MOLT-4 leukemia; 2.05 µM in the assay on SW-620 colon; 2.75 µM in the assay on SK-MEL-2 melanoma; 2.25 µM with A549 NSCLC. In addition, the TGI in the assay with NCI-H522 lung is over 100 µM; with T-47D breast, over 100 µM; with MOLT-4 leukemia, over 100 µM; with SW-620 colon, 6.38 µM; with SK-MEL-2 melanoma, over 100 µM; in the assay on A549 NSCLC, over 100 µM.
As for `C=C1C(=O)OC2CC(C)C3CC(O)OC(OCC)C3(C)CC12` (centres undefined), the total growth inhibition concentration (TGI) in the assay with NCI-H522 lung was determined as 18.8 µM; in the assay with T-47D breast, 33.1 µM; in the assay on MOLT-4 leukemia it was 56.4 µM; in the assay on HOP-62 NSCLC it was 47.6 µM; in the assay on SW-620 colon it was 19 µM; in the assay on SK-MEL-2 melanoma, 29.8 µM. The TGI in the assay with SF-295 CNS was 90.6 µM; in the assay on A549 NSCLC, over 96.6 µM.
As to `CCCCCC[C@H](C)Nc1nc2ccccc2c2occc12`, the GI50 with NCI-H522 lung was 2.26 µM; in the assay with T-47D breast, 33.2 µM; with MOLT-4 leukemia, 3.47 µM; in the assay on HOP-62 NSCLC, 11.5 µM; in the assay on SW-620 colon it was 5.46 µM; in the assay on SK-MEL-2 melanoma it was 14.8 µM. Besides, the GI50 in the assay on SF-295 CNS is 6.01 µM; in the assay with A549 NSCLC it was 8.3 µM. In addition, the TGI is 13.9 µM in the assay with NCI-H522 lung; 61.8 µM in the assay with T-47D breast; 16.2 µM in the assay with MOLT-4 leukemia; 23.9 µM in the assay on HOP-62 NSCLC; 22.2 µM with SW-620 colon; 32.6 µM in the assay with SK-MEL-2 melanoma. In addition, the TGI was determined as 25.5 µM with SF-295 CNS and 26.2 µM in the assay with A549 NSCLC.
As for `c1ccc2c(c1)SCCCSCCSCCCS2`, the concentration for total growth inhibition (TGI) with NCI-H522 lung, in the assay on T-47D breast, with MOLT-4 leukemia, with HOP-62 NSCLC, in the assay on SW-620 colon and in the assay on SF-295 CNS was over 100 µM in each case. Further, the concentration for total growth inhibition (TGI) in the assay with A549 NSCLC is over 100 µM.
Regarding `COc1ccc(C(O)c2cc3c(N)c(C(=O)Nc4cccc(Cl)c4)sc3nc2C)cc1` (centres undefined), the GI50 in the assay on NCI-H522 lung is 1.05 µM; in the assay with T-47D breast, 1.15 µM; with MOLT-4 leukemia it was 1.54 µM; with HOP-62 NSCLC it was 0.617 µM; in the assay with SW-620 colon, 1 µM; in the assay with SK-MEL-2 melanoma, 1.29 µM. Besides, the values for the GI50 with SF-295 CNS and in the assay on A549 NSCLC were 1.12 µM and 1.45 µM, respectively. For the same molecule, the TGI is over 41.9 µM in the assay on NCI-H522 lung; 31.9 µM in the assay with T-47D breast; over 43.3 µM in the assay on MOLT-4 leukemia; 19.9 µM in the assay on HOP-62 NSCLC; over 38.3 µM in the assay with SW-620 colon; 42.7 µM in the assay with SK-MEL-2 melanoma. Moreover, the concentration for total growth inhibition (TGI) was over 22.7 µM with SF-295 CNS and over 39.7 µM in the assay with A549 NSCLC.
Take `CCN(c1cc(-c2ccc(CN3CCOCC3)cc2)cc(C(=O)NCc2c(C)cc(C)[nH]c2=O)c1C)C1CCOCC1`: the GI50 in the assay on NCI-H522 lung was 23.6 µM; in the assay on T-47D breast, 18.9 µM; in the assay with MOLT-4 leukemia, 21.6 µM; in the assay with HOP-62 NSCLC, 30.7 µM; in the assay with SW-620 colon, 20.7 µM; with SK-MEL-2 melanoma, 16.6 µM. The GI50 with SF-295 CNS was 26.2 µM; with A549 NSCLC, 33.5 µM. Besides, the TGI is over 58.5 µM in the assay with NCI-H522 lung; 53.4 µM in the assay on T-47D breast; 93.8 µM in the assay with MOLT-4 leukemia; 99.2 µM with HOP-62 NSCLC; 52.4 µM in the assay on SW-620 colon; 35.8 µM in the assay with SK-MEL-2 melanoma. The concentration for total growth inhibition (TGI) was 71.3 µM with SF-295 CNS and over 100 µM in the assay on A549 NSCLC.
As for `Cc1nc2ccc(NC(=O)CCNC(=O)CCCc3ccc(CC(C(=O)O)C(=O)O)cc3)cc2s1`, the GI50 in the assay with NCI-H522 lung, with T-47D breast, with MOLT-4 leukemia, in the assay with HOP-62 NSCLC, in the assay with SW-620 colon and in the assay with SK-MEL-2 melanoma was over 100 µM each time. The GI50 in the assay on SF-295 CNS and with A549 NSCLC was over 100 µM each time. Further, the TGI in the assay with NCI-H522 lung, with T-47D breast, with MOLT-4 leukemia, in the assay on HOP-62 NSCLC, in the assay on SW-620 colon and in the assay with SK-MEL-2 melanoma was over 100 µM throughout. The concentration for total growth inhibition (TGI) in the assay on SF-295 CNS and in the assay on A549 NSCLC was over 100 µM in each case.
On to `COc1cc(NC(=O)CCSc2nc3ccc(C)cc3c(=O)n2Cc2ccccc2)cc(OC)c1OC`, for which the GI50 is 11.3 µM with NCI-H522 lung; 7.04 µM in the assay with T-47D breast; over 100 µM in the assay with MOLT-4 leukemia; 2.94 µM in the assay with HOP-62 NSCLC; over 100 µM with SW-620 colon; 4.4 µM with SK-MEL-2 melanoma. For the same molecule, the GI50 with A549 NSCLC was 8.08 µM. Moreover, the concentration for total growth inhibition (TGI) was 76.7 µM in the assay on NCI-H522 lung; over 100 µM in the assay on T-47D breast; over 100 µM in the assay with MOLT-4 leukemia; 9.47 µM in the assay with HOP-62 NSCLC; over 100 µM in the assay with SW-620 colon; 27.5 µM with SK-MEL-2 melanoma. The same molecule showed a TGI in the assay with A549 NSCLC of over 100 µM.
For `CN(C)CCSS(=O)(=O)O`, the TGI with NCI-H522 lung, with T-47D breast, with MOLT-4 leukemia, in the assay with HOP-62 NSCLC, in the assay on SW-620 colon and with SK-MEL-2 melanoma was over 100 µM throughout. The TGI with SF-295 CNS was 94.4 µM; in the assay with A549 NSCLC it was over 100 µM.
Take `Cc1nc2c(n1C)C(=O)c1ccccc1C2=O`: the GI50 is 40.6 µM with NCI-H522 lung; 87.4 µM in the assay with T-47D breast; 85 µM in the assay on MOLT-4 leukemia; over 100 µM with HOP-62 NSCLC; 52 µM in the assay on SW-620 colon; over 100 µM in the assay with SK-MEL-2 melanoma. For the same molecule, the GI50 in the assay on SF-295 CNS is 10.8 µM; with A549 NSCLC, 21.5 µM. Besides, the total growth inhibition concentration (TGI) with NCI-H522 lung, in the assay on T-47D breast, with MOLT-4 leukemia, in the assay on HOP-62 NSCLC, in the assay with SW-620 colon and with SK-MEL-2 melanoma was over 100 µM throughout. Besides, the TGI in the assay on SF-295 CNS is 72.3 µM; in the assay on A549 NSCLC, over 100 µM.

As a reminder, the GI50 is the concentration giving 50% growth inhibition. As usually defined, the TGI is the concentration giving total growth inhibition.
